Results on 28 molecules are retold here after paper PMC9656801, “Synthesis of Cyclotetrapeptides Analogues to Natural Products as Herbicides” (Molecules, 2022).

Where two headings read alike, the source gives them in different places. Non-standard residues stand in square brackets, D forms with d. Residues, ends and D or L forms follow the SMILES beside them. NMeF = CN[C@@H](Cc1ccccc1)C(=O)O; dNMeF = CN[C@H](Cc1ccccc1)C(=O)O; NMeA = CN[C@@H](C)C(=O)O; Sar = CNCC(=O)O

The subject of data set [1] is Lolium multiflorum (Ryegrass) seeds. Kind of data set: whole plant or invertebrate. In kind it is in vivo. The following applies: agar germination; for Radicle growth inhibition (%): 67 µg/mL, 20 °C, evaluated after 12 days, three replicates of ten seeds, relative to DMSO negative control. Here is the method:
The herbicidal activity of cyclotetrapeptides 16–25, 27 and the linear precursors 4–8, 10, 12–15 were evaluated for their influence on germination, leaf development and radicle length growth of ryegrass seeds at 67 μg/mL using germination in agar methodology. DMSO was used as negative control and the herbicide S-metolachlor as positive control. […] The results were expressed as % of radicle growth inhibition, calculated as the percentage between the treatment with each compound and radicle length growth for the negative control (DMSO), as shown in Figure 3.
The experiments to determine the herbicidal activity of the cyclopeptide compounds were carried out on Lolium multiflorum (Raygrass) plants. Germination, root length and leaf development were evaluated, compared to a control without herbicide, a negative control (100 μL DMSO in 15 mL agar, used as solvent) and an herbicide control (1/8 of the commercial dose of the herbicide S-metolachlor).
Serial experiments were conducted using the Agar germination methodology, where the tested compounds and the respective controls were placed in glass Petri dishes (6 cm diameter) in three replicates per treatment. Ten ryegrass seeds were germinated in a growth chamber (20 °C, day/night temperature). The seeds were previously sterilized by immersing them in 70% alcohol for 10 s. When distributed in the Petri dish on the agar, the seeds were placed in such a way as to ensure that they remained submerged in the solution.
Agar–water solution was prepared at 0.3%, 3 g of agar was placed in 1 liter of deionized water, and the solution was autoclaved at 100 °C for 45 min. Once the agar medium had cooled to approximately 60 °C, the solutions were prepared.
The negative control–DMSO control was prepared by adding 100 μL of DMSO per plate in 15 mL of agar and then the seeds were distributed, as mentioned above. A control without DMSO was also carried out to check that the product was not altering the correct development of the ryegrass seeds. For this test, 15 ml of agar were placed in each Petri dish and, before it solidified, the seeds of the species evaluated were placed on top. The herbicide treatment, positive control–Control S-Metolachlor (960 g/L), was carried out for a conversion of 1/8 of the dose of 1 L/ha of commercial product. For this purpose, a stock solution of S-Metolachlor was prepared by placing 0.28 mL of the herbicide in a volumetric flask and topping up to 1000 mL. A total of 25 mL of this stock solution were taken, placed in a volumetric flask and brought to 200 mL, thus, generating the 1/8x solution of S-Metolachlor. A volume of 3 mL of 1/8x herbicide solution was mixed with 45 mL of the agar solution to bring 16 mL into each Petri dish. This ensured that there was 1 mL of 1/8x S-Metolachlor solution per plate: 0.28 μL of herbicide solution. Seeds were arranged in the same way. Using the same method, the agar media corresponding to each plate (15 mL) was mixed with the cyclopeptides dissolved in 100 μL of DMSO.
Germination, root length and leaf development were evaluated 12 days after preparation. The variables of germinated plants and plants with developed leaves of the total number of plants placed to germinate were analyzed by fitting a generalized linear model, since they presented a binomial distribution.
Glinmix procedure of the SAS statistical package. Based on the model and for the comparison of the treatments with the different controls, the contrasts of interest were carried out. The effect of the treatments on the root length variable was studied by comparing means using a Tukey test (p-value < 0.05) in INFOSTAT.
5. Procedure for evaluation of phytotoxic activity
Experiments for determining the herbicidal activity of cyclopeptide compounds were carried out on Lolium multiflorum (Ray grass) plants. Germination, root length, and leaf development were evaluated compared to a control without herbicide, a negative […]

The conditions of data set [2]: amide bond, 12-membered ring.
Data set [3] deals with Lolium multiflorum (Ryegrass) seeds. Format: in vivo. The note with it: agar germination.
Data set [4] shares this test system. The note with it: 67 μg/mL; cited from earlier work.
In the next data set the test system is cyanobacteria. The note with it: cited from earlier work.
The next data set deals with HepG2 cells. The following applies: cited from earlier work.
Setting [5] is: 6 µM, 12 days, relative to DMSO control.
Setting [6] is: 11 µM, 12 days, relative to DMSO control.

For “Cyclo-[Ala-Leu-D-Phe-Gly] (head to tail) [Compound 16]”, the “Radicle growth inhibition (%)” value in data set [1] is “inactive”.

Regarding Cyclo-[Phe-N-MeGly-Cys(Bn)-N-MeGly], the ring closure, isolated yield in data set [2] amounted to 54%.

As for `CC(C)C[C@H](NC(=O)[C@H](C)N)C(=O)N[C@@H](Cc1ccccc1)C(=O)N(C)CC(=O)O` [Compound 6, NH2-Ala-Leu-Phe-NMeGly-OH] (H-ALF[Sar]-OH), the “Radicle growth inhibition (%)” value in data set [1] is 92% and greater than 85%.

Turning to “Cyclo-[N-MeAla-Leu-Phe-Gly] (head to tail) [Compound 17]”, the “Radicle growth inhibition (%)” value in data set [3] (setting [5]) is given as 10%.

Regarding “Cyclo-[Ala-Leu-N-Me-D-Phe-Gly] (head to tail) [Compound 19]”, the “Radicle growth inhibition (%)” value in data set [1] is 87% and greater than 85%; in data set [3] (9 µM, 12 days, relative to DMSO control) it was 53%.

As for “Cyclo-[N-MeAla-Leu-D-Phe-Gly] (head to tail) [Compound 20]”, the “Radicle growth inhibition (%)” value in data set [1] is listed as 74%; in data set [3] (setting [5]), 32%.

Turning to `C[C@@H]1NC(=O)[C@@H](Cc2ccccc2)N(C)C(=O)CN(C)C(=O)[C@H](Cc2ccccc2)NC1=O` [Compound 26, Cyclo-[N-Me-D-Phe-Ala-Phe-N-MeGly]] (cyclo([dNMeF]AF[Sar])), the “Radicle growth inhibition (%)” value is listed as 45% in data set [3] (7 µM, 12 days, relative to DMSO control) and 67% in data set [3] (45 µg/mL, 12 days, relative to DMSO control).

Cyclo-[N-MeAla-Leu-D-Phe-Gly] yielded a ring closure, isolated yield in data set [2] of 67%.

Molecule `CC(C)C[C@@H]1NC(=O)[C@H](C)NC(=O)CNC(=O)[C@@H](Cc2ccccc2)NC1=O` [Cyclo-[Ala-Leu-D-Phe-Gly]] had a ring closure, isolated yield in data set [2] (from H-Ala-Leu-dPhe-Gly-OH) of 5%.

For `CN[C@@H](C)C(=O)N[C@@H](Cc1ccccc1)C(=O)N(C)[C@@H](Cc1ccccc1)C(=O)NCC(=O)O` [Compound 13, N-MeAla-Phe-N-MePhe-Gly-OH] (H-[NMeA]F[NMeF]G-OH), the “Radicle growth inhibition (%)” value in data set [1] is recorded as “greater than 85%”; in data set [3] (5 µM, 12 days, relative to DMSO control), 38%.

`CC(C)C[C@H](NC(=O)[C@H](C)N)C(=O)N(C)[C@@H](Cc1ccccc1)C(=O)N(C)CC(=O)O` [Compound 10, NH2-Ala-Leu-N-MePhe-N-MeGly-OH] (H-AL[NMeF][Sar]-OH): the “Radicle growth inhibition (%)” value in data set [1] is “greater than 85%”; in data set [3] (setting [6]), 15%.

As to `C[C@H]1C(=O)N[C@@H](Cc2ccccc2)C(=O)N(C)[C@@H](Cc2ccccc2)C(=O)NCC(=O)N1C` [Compound 25, Cyclo-[N-MeAla-Phe-N-MePhe-Gly]] (cyclo([NMeA]F[NMeF]G)), the “Radicle growth inhibition (%)” value in data set [1] is 96% and greater than 85%; in data set [3] (4 µM, 12 days, relative to DMSO control) it was 41%.

For Cyclo-[N-MeAla-Phe-N-MePhe-Gly], the ring closure, isolated yield in data set [2] came to 86%.

As for `CC(C)C[C@@H]1NC(=O)[C@H](C)N(C)C(=O)CNC(=O)[C@H](Cc2ccccc2)N(C)C1=O` [Compound 24, Cyclo-[N-MeAla-Leu-N-MePhe-Gly]] (cyclo([NMeA]L[NMeF]G)), the “Radicle growth inhibition (%)” value in data set [1] is recorded as 81%; in data set [3] (10 µM, 12 days, relative to DMSO control), 62%.

For the molecule `CC(C)C[C@H](NC(=O)[C@H](C)N)C(=O)N(C)[C@H](Cc1ccccc1)C(=O)NCC(=O)O` [Compound 7, NH2-Ala-Leu-N-Me-D-Phe-Gly-OH] (H-AL[dNMeF]G-OH), the “Radicle growth inhibition (%)” value in data set [1] is 94% and greater than 85%; in data set [3] (setting [6]), 48%.

In the case of `CC(C)C[C@@H]1NC(=O)[C@H](C)NC(=O)CN(C)C(=O)[C@H](Cc2ccccc2)N(C)C1=O` [Compound 22, Cyclo-[Ala-Leu-N-MePhe-N-MeGly]] (cyclo(AL[NMeF][Sar])), the “Radicle growth inhibition (%)” value in data set [1] was 66%.

Take Cyclo-[N-MeAla-Leu-Phe-Gly]: the ring closure, isolated yield in data set [2] turned out to be 48%.

`CC(C)C[C@@H]1NC(=O)[C@H](C)NC(=O)CN(C)C(=O)[C@H](Cc2ccccc2)NC1=O` [Cyclo-[Ala-Leu-Phe-N-MeGly]] came in with a ring closure, isolated yield in data set [2] (from H-Ala-Leu-Phe-MeGly-OH) of 40%.

Regarding `CC(C)C[C@@H]1NC(=O)[C@H](C)N(C)C(=O)CN(C)C(=O)[C@H](Cc2ccccc2)NC1=O` [Compound 23, Cyclo-[N-MeAla-Leu-Phe-N-MeGly]] (cyclo([NMeA]LF[Sar])), the “Radicle growth inhibition (%)” value in data set [1] turned out to be 16%.

In data set [2] (from H-MeAla-Leu-Phe-MeGly-OH), `CC(C)C[C@@H]1NC(=O)[C@H](C)N(C)C(=O)CN(C)C(=O)[C@H](Cc2ccccc2)NC1=O` [Cyclo-[N-MeAla-Leu-Phe-N-MeGly]] yielded a ring closure, isolated yield of 38%.

As usually defined, the inhibition is the relative decrease from the control value, in per cent. Take `CCc1cccc(C)c1N(C(=O)CCl)[C@@H](C)COC` [S-metolachlor, reference compound]: the inhibition at 2.1 µg/mL in data set [1] (Lolium multiflorum, 288 h, positive control at 2.1 µg/mL (1/8 of the commercial dose), 12 days, read-out: Radicle growth inhibition (%)) is 100%.

On to `CC(C)C[C@@H]1NC(=O)[C@H](C)NC(=O)CN(C)C(=O)[C@@H](Cc2ccccc2)NC1=O` [Cyclo [Ala-Leu-D-Phe-N-MeGly]], for which the ring closure, isolated yield in data set [2] (from H-Ala-Leu-dPhe-MeGly-OH) came out at 76%.

`CC(C)C[C@@H]1NC(=O)[C@H](C)NC(=O)CNC(=O)[C@@H](Cc2ccccc2)N(C)C1=O` [Cyclo-[Ala-Leu-N-Me-D-Phe-Gly]] came in with a ring closure, isolated yield in data set [2] (from H-Ala-Leu-dMePhe-Gly-OH) of 66%.

Take `CC(C)C[C@@H]1NC(=O)[C@H](C)NC(=O)CN(C)C(=O)[C@H](Cc2ccccc2)N(C)C1=O` [Cyclo-[Ala-Leu-N-MePhe-N-MeGly]]: the ring closure, isolated yield in data set [2] (from H-Ala-Leu-MePhe-MeGly-OH) is 33%.

In the case of `CN[C@H](Cc1ccccc1)C(=O)N[C@@H](C)C(=O)N[C@@H](Cc1ccccc1)C(=O)N(C)CC(=O)O` [Compound 14, N-Me-D-Phe-Ala-Phe-N-MeGly-OH] (H-[dNMeF]AF[Sar]-OH), in data set [3] (67 µM as printed), the “Radicle growth inhibition (%)” value stood at 53%.

As for versicotide D, the radicle growth inhibition in data set [4] is listed as 74%. Also, the “inhibition of cyanobacteria population” value with cyanobacteria is recorded as “ability to inhibit cyanobacteria population”. In the data set on HepG2 cells, the “cytotoxicity on HepG2 cells” value is reported as “low cytotoxicity”.

Cyclo-[N-Me-D-Phe-Ala-Phe-N-MeGly]: the ring closure, isolated yield in data set [2] came out at 17%.

With Cyclo-[N-MeAla-Leu-N-MePhe-Gly], in data set [2], the ring closure, isolated yield was 47%.
